Results on 46 compounds are retold here after patent publication US7358259B2, “HCV inhibitors and methods of using them” (Rigel Pharmaceuticals, Inc., priority 2003, dated 2008).

Structures are written as SMILES.

The assay deals with HCV replicon in 5-2Luc replicon cells. In words: HCV Replicon Assay (luciferase). In kind it is cell-based. Particulars: Hepatitis C virus; Table 4; assay not given. As for the experimental part:
Actively dividing 5-2Luc replicon cells were seeded at the density of 5000-7500 cells/well in the volume of 90 μl/well into 96 well plate(s). The cells were then incubated at 37° C. and 5% CO2 for 24 hours. The 5-2 cells are replicon cells licensed from Ralf Bartenschlager (Germany) and have a self-replicating RNA molecule in the Huh7 cell; the RNA contains HCV non-structural proteins that make the self-replication possible.
Various concentrations of compounds (in the volume of 10 μl) were added into each well 24 hours after seeding the cells. The cells were incubated for another 24 hours before luciferase assay.
After incubating the 5-2 Luc replicon cells with the compounds for 24 hours, media were aspirated from each well and Bright-Glo ([…]) luciferase assay reagents were added to each well according to the manufacturer's manual. Briefly, the Bright-Glo reagent was diluted with equal volume of PBS and an aliquote (100 μl) was added to each well. After incubating the plate at room temperature for 5 minutes, luciferase counts were taken using a luminometer.
The compound `O=C(NOC1CCCCO1)c1cc2cccc(Cl)c2n2nnnc12` (stereo not shown) [9-chloro-N-(tetrahydro-2H-pyran-2-yl-oxy)tetrazolo[1,5-a]quinoline-4-car-boxamide] displayed an IC50 of over 10 µM.
`O=C(NOC1CCCCO1)c1cc2ccc(F)cc2n2c(Cl)nnc12` (stereo not shown) [1-chloro-8-fluoro-N-(tetrahydro-2H-py-ran-2-yloxy)-[1,2,4]tri-azolo[4,3-a]quinoline-4-car-boxamide] showed an IC50 of over 10 µM.
To `O=C(NOC1CCCCO1)c1cc2ccc(OC(F)(F)F)cc2n2nnnc12` (stereo not shown) [N-(tetrahydro-2H-pyran-2-yloxy)-8-(tri-fluoromethoxy)tetrazolo[1,5-a]quino-line-4-carboxamide] belongs over 10 µM; to `O=C(NO)c1cc2ccc(C(F)(F)F)cc2n2nnnc12` [N-hydroxy-8-(tri-fluoromethyl)tetrazolo[1,5-a]quino-line-4-carboxamide], under 10 µM; to `Cc1cc(C)c2c(c1)cc(C(=O)NOC1CCCCO1)c1nnnn12` (stereo not shown) [7,9-dimethyl-N-(tetrahydro-2H-py-ran-2-yloxy)tetrazolo[1,5-a]quino-line-4-carboxamide], over 10 µM.
Turning to `CCOC(=O)c1cc2cc(Cl)cc(Cl)c2n2cnnc12` [ethyl 7,9-dichloro-[1,2,4]tri-azolo[4,3-a]quinoline-4-car-boxylate], the IC50 was over 10 µM.
The compound `O=C(NO)c1cc2cc(Cl)ccc2n2cnnc12` [7-chloro-N-hydroxy-[1,2,4]tri-azolo[4,3-a]quinoline-4-car-boxamide] returned an IC50 of under 10 µM.
Consider `O=C(NO)c1cc2cc3c(cc2n2nnnc12)OCCO3` [N-hydroxy-8,9-di-hydro[1,4]dioxino[2,3-g]tetra-zolo[1,5-a]quinoline-4-car-boxamide], for which the IC50 is under 10 µM.
In turn, `Cc1cccc2cc(C(=O)NOC3CCCCO3)c3nnnn3c12` (stereo not shown) [9-methyl-N-(tetrahydro-2H-pyran-2-yl-oxy)tetrazolo[1,5-a]quinoline-4-car-boxamide] gave an IC50 of over 10 µM.
To `O=C(NO)c1cc2cc(Cl)cc(Cl)c2n2cnnc12` [7,9-dichloro-N-hydroxy-[1,2,4]tri-azolo[4,3-a]quinoline-4-car-boxamide] belongs under 10 µM.
`COc1ccc2cc(C(=O)NO)c3nnnn3c2c1` [N-hydroxy-8-meth-oxytetrazolo[1,5-a]quino-line-4-carboxamide] came in with an IC50 of over 10 µM.
For the compound `CN(O)C(=O)c1cc2ccc(Cl)cc2n2nnnc12` [8-chloro-N-hydroxy-N-meth-yltetrazolo[1,5-a]quinoline-4-car-boxamide], the IC50 was over 10 µM.
`Cc1cc(C)c2c(c1)cc(C(=O)NO)c1nnnn12` [N-hydroxy-7,9-di-methyltetrazolo[1,5-a]quino-line-4-carboxamide] had an IC50 of under 10 µM.
With `Cc1nnc2c(C(=O)NO)cc3cc(Cl)ccc3n12` [7-chloro-N-hydroxy-1-methyl-[1,2,4]tri-azolo[4,3-a]quinoline-4-car-boxamide] the figure was under 10 µM; with `O=C(NOC1CCCCO1)c1cc2cc(Cl)cc(Cl)c2n2nnnc12` (stereo not shown) [7,9-dichloro-N-(tetrahydro-2H-py-ran-2-yloxy)tetrazolo[1,5-a]quino-line-4-carboxamide], over 10 µM; with `CCOC(=O)c1cc2cc(Cl)ccc2n2cnnc12` [ethyl 7-chloro-[1,2,4]tri-azolo[4,3-a]quinoline-4-car-boxylate], over 10 µM.
Consider `O=C(NOC1CCCCO1)c1cc2cc(Cl)cc(Cl)c2n2cnnc12` (stereo not shown) [7,9-dichloro-N-(tetrahydro-2H-py-ran-2-yloxy)-[1,2,4]tri-azolo[4,3-a]quinoline-4-car-boxamide], for which the IC50 was over 10 µM.
Compound `COC(=O)c1cc2nnnn2c2ccccc12` [methyl tetrazolo[1,5-a]quinoline-5-car-boxylate] registered an IC50 of over 10 µM.
In turn, `COc1cc2cc(C(=O)NO)c3nnnn3c2cc1OC` [N-hydroxy-7,8-di-methoxytetrazolo[1,5-a]quino-line-4-carboxamide] showed an IC50 of under 10 µM.
The compound `O=C(NO)c1cc2cc(F)ccc2n2nnnc12` [7-fluoro-N-hydroxytetrazolo[1,5-a]quino-line-4-carboxamide] came in with an IC50 of under 10 µM.
Regarding `O=C(NO)c1cc2cccc(Cl)c2n2nnnc12` [9-chloro-N-hydroxytetrazolo[1,5-a]quino-line-4-carboxamide], the half-maximal inhibitory concentration (IC50) is under 10 µM.
With `O=C(NO)c1cc2nnnn2c2ccccc12` [N-hydroxytetrazolo[1,5-a]quino-line-5-carboxamide] the figure was over 10 µM.
`O=C(NO)c1cc2c(Cl)cccc2n2nnnc12` [6-chloro-N-hydroxytetrazolo[1,5-a]quino-line-4-carboxamide] returned an IC50 of under 10 µM.
To `O=C(O)c1cc2cc(Cl)cc(Cl)c2n2cnnc12` [7,9-dichloro-[1,2,4]triazolo[4,3-a]quino-line-4-carboxylic acid] belongs over 10 µM; to `COC(=O)c1cc2ccc(F)cc2n2cnnc12` [methyl 8-fluoro-[1,2,4]tri-azolo[4,3-a]quinoline-4-car-boxylate], over 10 µM; to `O=C(NO)c1cc2ccc(F)cc2n2c(Cl)nnc12` [1-chloro-8-fluoro-N-hydroxy-[1,2,4]tri-azolo[4,3-a]quinoline-4-car-boxamide], under 10 µM.
`O=C(NO)c1cc2ccccc2nc1Cl` [2-chloro-N-hydroxyquinoline-3-car-boxamide] showed a concentration for half-maximal inhibition (IC50) of over 10 µM.
`COc1ccc2cc(C(=O)NOC3CCCCO3)c3nnnn3c2c1` (stereo not shown) [8-methoxy-N-(tetrahydro-2H-py-ran-2-yloxy)tetrazolo[1,5-a]quino-line-4-carboxamide] came in with an IC50 of over 10 µM.
To `O=C(NO)c1cc2ccc(OC(F)(F)F)cc2n2nnnc12` [N-hydroxy-8-(tri-fluoromethoxy)tetrazolo[1,5-a]quino-line-4-carboxamide] belongs under 10 µM.
With `O=C(O)c1cc2ccc(F)cc2n2cnnc12` [8-fluoro-[1,2,4]triazolo[4,3-a]quino-line-4-carboxylic acid], the IC50 is over 10 µM.
Compound `O=C(NO)c1cc2ccc(Cl)cc2n2nnnc12` [8-chloro-N-hydroxytetrazolo[1,5-a]quino-line-4-carboxamide] displayed an IC50 of under 10 µM.
Compound `Cc1cccc2cc(C(=O)NO)c3nnnn3c12` [N-hydroxy-9-methyltetrazolo[1,5-a]quino-line-4-carboxamide] returned an IC50 of under 10 µM.
Take `COc1cc2cc(C(=O)NOC3CCCCO3)c3nnnn3c2cc1Cl` (stereo not shown) [8-chloro-7-methoxy-N-(tetra-hydro-2H-pyran-2-yl-oxy)tetrazolo[1,5-a]quinoline-4-car-boxamide]: the 50% inhibitory concentration (IC50) was over 10 µM.
Regarding `COc1cc2cc(C(=O)NOC3CCCCO3)c3nnnn3c2cc1OC` (stereo not shown) [7,8-dimethoxy-N-(tetrahydro-2H-py-ran-2-yloxy)tetrazolo[1,5-a]quino-line-4-carboxamide], the IC50 was under 10 µM.
Compound `O=C(NO)c1cc2cc(Cl)ccc2n2nnnc12` [7-chloro-N-hydroxytetrazolo[1,5-a]quino-line-4-carboxamide] returned an IC50 of under 10 µM.
For the compound `O=C(NOC1CCCCO1)c1cc2c(Cl)cccc2n2nnnc12` (stereo not shown) [6-chloro-N-(tetrahydro-2H-pyran-2-yl-oxy)tetrazolo[1,5-a]quinoline-4-car-boxamide], the IC50 is over 10 µM.
With `O=C(NOC1CCCCO1)c1cc2ccccc2n2nnnc12` (stereo not shown) [N-(tetrahydro-2H-pyran-2-yl-oxy)tetrazolo[1,5-a]quinoline-4-car-boxamide] the figure was over 10 µM; with `O=C(NOC1CCCCO1)c1cc2nnnn2c2ccccc12` (stereo not shown) [N-(tetrahydro-2H-pyran-2-yl-oxy)tetrazolo[1,5-a]quinoline-5-car-boxamide], over 10 µM.
With `O=C(NOC1CCCCO1)c1cc2cc(Cl)ccc2n2nnnc12` (stereo not shown) [7-chloro-N-(tetrahydro-2H-pyran-2-yl-oxy)tetrazolo[1,5-a]quinoline-4-car-boxamide] the figure was over 10 µM.
`O=C(NO)c1cnc2ccccc2c1` [N-hydroxyquinoline-3-car-boxamide] had a 50% inhibitory concentration (IC50) of over 10 µM.
To `ClC(Cl)c1nnc(-c2cc3nnnn3c3ccccc23)o1` [5-(5-(dichloromethyl)-1,3,4-oxa-diazol-2-yl)tetrazolo[1,5-a]quino-line] belongs over 10 µM; to `O=C(NOC1CCCCO1)c1cc2cc(Cl)ccc2n2cnnc12` (stereo not shown) [7-chloro-N-(tetrahydro-2H-pyran-2-yl-oxy)-[1,2,4]triazolo[4,3-a]quino-line-4-carboxamide], over 10 µM.
`COc1cc2cc(C(=O)NO)c3nnnn3c2cc1Cl` [8-chloro-N-hydroxy-7-meth-oxytetrazolo[1,5-a]quino-line-4-carboxamide] yielded an IC50 of under 10 µM.
The compound `O=C(NO)c1cc2ccccc2n2nnnc12` [N-hydroxytetrazolo[1,5-a]quino-line-4-carboxamide] showed an IC50 of under 10 µM.
Take `O=C(NO)c1cc2cc(Cl)cc(Cl)c2n2nnnc12` [7,9-dichloro-N-hy-droxytetrazolo[1,5-a]quinoline-4-car-boxamide]: the IC50 was under 10 µM.
With `CCOC(=O)c1cc2cc(Cl)ccc2n2c(C)nnc12` [ethyl 7-chloro-1-methyl-[1,2,4]tri-azolo[4,3-a]quinoline-4-car-boxylate] the figure was over 10 µM.
